Data set [1] in a line: Solubility / miscibility in water and formulating agents. The format is physicochemical.
For data set [2] the following is noted: cited from earlier work.

Regarding `COc1cc(C=O)ccc1O` [Vanillin], the “solubility in polyethylene glycol” value in data set [1] (polyethylene glycol) is on record as “considerably soluble”. The “solubility in tetra ethyl ortho silicate” value in data set [1] (tetra ethyl ortho silicate) is reported as “considerably soluble”. Further, in data set [2] (according to the Merck index), the solubility in water is given as 1 gram in 100 ml water. In data set [2] (compared with water, Merck index), the solubility in alcohol result is “more soluble”.

Source of the values: US20080311233A1, “Naturally Occurring Phenolic Substances Useful as Pesticides” (priority 2004, published 2008).
